We go through 4 compounds from US20250287987A1, “AEROSOLISABLE MATERIAL” (NICOVENTURES TRADING LIMITED, priority 2022, published 2025).

The data set can be described thus: physchem. An excerpt:
LogP is the partition coefficient of a molecule between aqueous and lipophilic phases, usually considered as octanol and water. As referred to herein, the LogP of specific terpenes can be determined using the “slow-stirring” method, wherein water, 1-octanol and the test substance are equilibrated in a thermostated stirred reactor. Exchange between the phases is accelerated by stirring. The stirring introduces limited turbulence which enhances the exchange between 1-octanol and water without microdroplets being formed. A suitable “slow-stirring” method is: Test No. 123: Partition Coefficient (1-Octanol/Water): Slow-Stirring Method, 30 Jun. 2022, OECD Guidelines for the Testing of Chemicals.

With `CC(C)=CCCC(C)CCO` (stereo not drawn) [Beta-citronellol], the logP (commonly the decadic logarithm of the partition coefficient of the neutral form, usually between octanol and water) (LogP) was 3.56.

Regarding `C=C(C)[C@H]1CC=C(C)CC1` [Limonene], the logP (octanol/water) turned out to be 4.4. For the compound `C=CC(C)(CCC=C(C)C)OC(C)=O` (stereo not shown) [Linalyl acetate], the logP was determined as 3.92. As to `C=C1CC/C=C(\C)CC[C@@H]2[C@@H]1CC2(C)C` [beta-caryophyllene], the logP (LogP) was more than 6.4.
